Results on 31 compounds are retold here after ChEMBL document CHEMBL1154007, “Discovery and development of aurora kinase inhibitors as anticancer agents” (J Med Chem, 2009).

The target in series [1] is T1, Aurora kinase B (Homo sapiens, UniProt Q96GD4). Briefly: Inhibition of aurora B in human SW620 cells assessed as inhibition of histone H3 phosphorylation. In kind it is cell-based, SW-620.
For series [2], the target named is T1, Aurora kinase B. Briefly: Inhibition of aurora B kinase.
Another series deals with T2, Aurora kinase A (Homo sapiens, UniProt O14965).
T2 sequence (O14965 whole entry): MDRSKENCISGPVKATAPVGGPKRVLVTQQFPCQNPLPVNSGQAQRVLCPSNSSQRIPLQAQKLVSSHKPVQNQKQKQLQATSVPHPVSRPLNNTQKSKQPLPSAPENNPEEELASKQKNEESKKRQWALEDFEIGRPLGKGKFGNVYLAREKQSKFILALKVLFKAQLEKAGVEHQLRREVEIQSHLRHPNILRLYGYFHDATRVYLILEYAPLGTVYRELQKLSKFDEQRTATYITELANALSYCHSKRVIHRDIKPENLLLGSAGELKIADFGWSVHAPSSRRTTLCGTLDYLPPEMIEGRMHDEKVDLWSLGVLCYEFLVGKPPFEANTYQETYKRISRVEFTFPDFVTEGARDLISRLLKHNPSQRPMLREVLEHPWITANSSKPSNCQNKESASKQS

The subject of a further series is COLO 205. The experiment in a line: Antiproliferative activity against human COLO205 cells assessed as inhibition of thymidine uptake after 96 hrs. In kind it is functional, cell-based. The following applies: COLO 205, 96 h.
In series [3] the target is Proto-oncogene tyrosine-protein kinase Src (Homo sapiens, UniProt P12931). The experiment in a line: Inhibition of Src.
Series [4] addresses Glycogen synthase kinase-3 beta (Homo sapiens, UniProt P49841). Briefly: Inhibition of Gsk3beta.
The next series deals with HCT-116. The experiment in a line: Antiproliferative activity against human HCT116 cells assessed as BrdU incorporation after 72 hrs. In kind it is functional, cell-based. The conditions noted are these: HCT-116, 72 h. (In general: Uptake of a labelled nucleoside into DNA is a usual measure of proliferation.)
Series [5] can be described thus: Aqueous solubility at pH 7.4. In kind it is physicochemical.
Series [6] in a line: Toxicity in po dosed rat assessed at maximum tolerated dose after 2 weeks. The following applies: in vivo. In kind it is organism-based.
Series [7] in a line: Half life in iv dosed rat. The conditions noted are these: in vivo. In kind it is ADME, organism-based.
A short description of series [8]: Volume of distribution at steady state in iv dosed rat. The following applies: in vivo, read-out: Vdss. In kind it is ADME, organism-based.
Series [9] is described as follows: Bioavailability in […] rat. The series is classed as ADME, organism-based. The following applies: in vivo.
Series [10] can be described thus: Clearance in iv dosed rat. The series is classed as ADME, organism-based. The following applies: in vivo.
The species entered for another series is Rattus norvegicus. The experiment in a line: Antitumor activity in rat assessed as inhibition of tumor volume. In kind it is functional.
The target of series [11] is Tyrosine-protein kinase Lck (Homo sapiens, UniProt P06239). Briefly: Inhibition of Lck.
The next series deals with T3, Aurora kinase C (Homo sapiens, UniProt Q9UQB9).
T3 sequence (Q9UQB9 whole entry): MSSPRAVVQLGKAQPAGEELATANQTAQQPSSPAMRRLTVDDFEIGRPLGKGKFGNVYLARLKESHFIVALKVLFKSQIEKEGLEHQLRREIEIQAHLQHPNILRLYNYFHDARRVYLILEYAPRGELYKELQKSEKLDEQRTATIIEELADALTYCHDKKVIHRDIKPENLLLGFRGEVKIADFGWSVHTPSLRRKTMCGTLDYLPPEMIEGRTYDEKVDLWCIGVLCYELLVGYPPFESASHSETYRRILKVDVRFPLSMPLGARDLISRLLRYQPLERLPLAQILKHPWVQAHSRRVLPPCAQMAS
The experiment in a line: Inhibition of aurora C kinase.

Series [12] is described as follows: Clearance in iv infused tumor bearing mouse. The series is classed as ADME, organism-based. The following applies: in vivo.
The nature of series [13]: Elimination half life in iv infused tumor bearing mouse. In kind it is ADME, organism-based. The conditions noted are these: in vivo, read-out: beta t1/2 (converted).
Series [14] is described as follows: Volume of distribution in iv infused tumor bearing mouse. In kind it is ADME, organism-based. The following applies: in vivo.
In a further series the test system is A2780. The experiment in a line: Antiproliferative activity against human A2780 cells assessed as accumulation of 4N DNA. In kind it is functional, cell-based.
A short description of series [15]: Drug level in tumor bearing mouse tumor at 30 mg/kg after 24 hrs. In kind it is ADME, organism-based, Neoplasm. More on the design: dose 30 mg/kg. The conditions noted are these: read-out: Activity.
The nature of series [16]: Drug level in tumor bearing mouse plasma at 30 mg/kg after 24 hrs. More on the design: dose 30 mg/kg. The conditions noted are these: read-out: Activity. In kind it is ADME, organism-based.
In a further series the test system is Homo sapiens. The experiment in a line: Drug elimination in human patient after 5 days of iv infusion. The following applies: in vivo, 120 h. In kind it is ADME, organism-based.

Counter-ions that a name gives are not always drawn.

T1 sequence (Q96GD4 whole entry): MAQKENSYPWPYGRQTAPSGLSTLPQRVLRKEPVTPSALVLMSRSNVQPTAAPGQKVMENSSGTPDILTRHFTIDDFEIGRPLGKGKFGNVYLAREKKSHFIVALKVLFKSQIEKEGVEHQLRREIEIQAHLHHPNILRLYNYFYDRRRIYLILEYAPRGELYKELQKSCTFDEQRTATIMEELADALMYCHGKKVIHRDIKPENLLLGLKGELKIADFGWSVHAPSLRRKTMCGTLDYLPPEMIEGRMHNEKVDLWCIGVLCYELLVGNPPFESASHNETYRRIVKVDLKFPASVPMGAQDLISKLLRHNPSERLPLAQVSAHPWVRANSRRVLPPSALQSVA
Sequence of Proto-oncogene tyrosine-protein kinase Src (P12931 2-536 limits assumed): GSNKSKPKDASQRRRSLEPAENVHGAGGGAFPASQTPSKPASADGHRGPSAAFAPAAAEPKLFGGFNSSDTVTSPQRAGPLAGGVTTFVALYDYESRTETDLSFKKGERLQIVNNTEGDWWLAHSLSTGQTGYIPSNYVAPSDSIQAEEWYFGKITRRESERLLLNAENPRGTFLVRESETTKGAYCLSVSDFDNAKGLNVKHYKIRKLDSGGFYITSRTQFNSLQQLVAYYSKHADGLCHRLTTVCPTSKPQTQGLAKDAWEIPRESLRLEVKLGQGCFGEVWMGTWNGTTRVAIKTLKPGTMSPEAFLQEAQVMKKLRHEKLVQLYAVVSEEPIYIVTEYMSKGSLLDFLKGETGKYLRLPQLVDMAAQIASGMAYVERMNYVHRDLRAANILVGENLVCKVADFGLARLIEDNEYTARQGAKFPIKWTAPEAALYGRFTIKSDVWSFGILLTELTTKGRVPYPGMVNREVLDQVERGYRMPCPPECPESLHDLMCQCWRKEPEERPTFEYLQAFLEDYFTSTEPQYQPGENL
Sequence of Glycogen synthase kinase-3 beta (P49841 whole entry): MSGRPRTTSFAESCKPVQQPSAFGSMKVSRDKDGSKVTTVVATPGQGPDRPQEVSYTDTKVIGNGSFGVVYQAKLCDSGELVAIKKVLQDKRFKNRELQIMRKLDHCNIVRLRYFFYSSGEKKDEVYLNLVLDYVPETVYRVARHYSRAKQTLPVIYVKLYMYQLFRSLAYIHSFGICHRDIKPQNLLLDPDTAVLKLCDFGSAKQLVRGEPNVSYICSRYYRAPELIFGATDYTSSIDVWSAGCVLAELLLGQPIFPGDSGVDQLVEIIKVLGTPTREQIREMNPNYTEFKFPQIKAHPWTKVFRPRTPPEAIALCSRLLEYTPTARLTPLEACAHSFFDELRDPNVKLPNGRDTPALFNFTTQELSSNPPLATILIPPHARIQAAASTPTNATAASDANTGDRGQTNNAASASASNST
Sequence of Tyrosine-protein kinase Lck (P06239 whole entry): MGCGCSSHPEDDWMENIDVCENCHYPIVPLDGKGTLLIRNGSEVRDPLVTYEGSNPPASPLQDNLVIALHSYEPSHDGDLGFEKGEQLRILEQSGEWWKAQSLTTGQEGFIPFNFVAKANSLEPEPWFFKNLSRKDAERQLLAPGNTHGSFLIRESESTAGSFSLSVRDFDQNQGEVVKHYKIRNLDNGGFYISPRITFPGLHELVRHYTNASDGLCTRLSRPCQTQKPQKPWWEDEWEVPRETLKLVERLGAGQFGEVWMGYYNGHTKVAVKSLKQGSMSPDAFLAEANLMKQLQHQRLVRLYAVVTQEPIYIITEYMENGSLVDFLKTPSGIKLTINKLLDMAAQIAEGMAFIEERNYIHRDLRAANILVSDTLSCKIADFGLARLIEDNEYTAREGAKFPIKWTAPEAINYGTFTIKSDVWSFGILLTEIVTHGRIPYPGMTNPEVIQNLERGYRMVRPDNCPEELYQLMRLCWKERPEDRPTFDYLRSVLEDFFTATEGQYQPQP

As for `CCN(CCO)CCCOc1cc2ncnc(Nc3cc(CC(=O)Nc4cccc(F)c4F)[nH]n3)c2cc1OC`, the IC50 is 0.045 µM at Aurora kinase B [1], < 0.001 µM on Aurora kinase B [2] and 0.36 µM against Aurora kinase A.
Take `CCN(CCO)CCCOc1cc2ncnc(Nc3cc(CC(=O)Nc4cccc(F)c4)[nH]n3)c2cc1OC`: the IC50 was 0.27 µM on Aurora kinase B [1], 0.001 µM on Aurora kinase B [2] and 0.19 µM on Aurora kinase A.
Consider `CCN(CCO)CCCOc1ccc2c(Nc3cc(CC(=O)Nc4cccc(F)c4F)[nH]n3)ncnc2c1`, for which the values for the IC50 against Aurora kinase B [2] and against Aurora kinase A were 0.0075 µM and 0.8 µM, respectively.
As to `COc1cc2c(Nc3cc(CC(=O)Nc4cccc(F)c4F)[nH]n3)ncnc2cc1OCCCN(CCO)CC(C)C`, the IC50 at Aurora kinase B [1] is < 0.001 µM; against Aurora kinase B [2], < 0.001 µM; at Aurora kinase A it was 0.018 µM.
For `CCCN(CCO)CCCOc1cc2ncnc(Nc3cc(CC(=O)Nc4cccc(F)c4)[nH]n3)c2cc1OC`, the results for the IC50 at Aurora kinase B [1], against Aurora kinase B [2] and against Aurora kinase A were 0.29 µM, 0.002 µM and 0.22 µM, respectively.
`Cc1cc(Nc2nc(-c3ccccc3)nc3ccccc23)n[nH]1`: the IC50 with COLO 205 came to 1.4 µM. In addition, the Ki in series [3] worked out at 0.081 µM; in series [4] it was 0.022 µM; on Aurora kinase A, 0.058 µM.
The compound `COc1cc2c(Nc3cnc(NC(=O)c4ccccc4)nc3)ncnc2cc1OCCCN1CCOCC1` gave an IC50 at Aurora kinase B [2] of 0.001 µM.
Take `O=C(Nc1cccc(C(F)(F)F)c1)Nc1ncc(CCNc2ncnc3ccsc23)s1`: in the series on HCT-116, the EC50 is 0.013 µM.
For the compound `O=C(Nc1ccccc1)Nc1ncc(CCNc2ncnc3ccsc23)s1`, the EC50 in the series with HCT-116 was 0.045 µM.
`COc1cc2c(Nc3ncc(C(=O)Nc4ccccc4)s3)ncnc2cc1OCCCN1CCOCC1`: the values for the IC50 on Aurora kinase B [2] and on Aurora kinase A were 0.042 µM and 0.004 µM, respectively.
On to `CCC(=O)Nc1ccc(Sc2nc(Nc3cc(C)n[nH]3)cc(N3CCOCC3)n2)cc1`, for which the IC50 was determined as 0.135 µM with COLO 205, 0.014 µM at Aurora kinase B [2] and 0.0017 µM at Aurora kinase A. The same compound yielded a solubility in [5] of 5.4 µM.
The like results for `CCC(=O)Nc1ccc(Sc2nc(Nc3cc(C)n[nH]3)cc(N3CCNCC3)n2)cc1` were, in that order, 0.079 µM, 0.018 µM, 0.0037 µM and 296 µM.
As for `CCC(=O)Nc1ccc(Sc2nc(Nc3cc(C)n[nH]3)cc(N3CCN(C(C)(C)C)CC3)n2)cc1`, the IC50 in the series with COLO 205 was 0.002 µM; against Aurora kinase B [2] it was 0.011 µM; at Aurora kinase A, 0.0013 µM. This compound displayed a solubility in series [5] of 221 µM.
On to `CC(C)(C)c1ccc(C(=O)Nc2n[nH]c3c2CN(C(=O)Cc2cccs2)C3)cc1`, for which the IC50 with HCT-116 is 2 µM.
As for `COc1cc2c(Nc3nc(C(=O)Nc4ccccc4)cs3)ncnc2cc1OCCCN1CCOCC1`, the IC50 on Aurora kinase B [2] came out at 0.53 µM; on Aurora kinase A, 0.182 µM.
As to `CCC(=O)Nc1ccc(Sc2nc(Nc3cc(C)[nH]n3)cc(N3CCN(C)CC3)n2)cc1`, the IC50 in the series on COLO 205 was 0.024 µM; against Aurora kinase B [2], 0.02 µM; at Aurora kinase A, 0.0016 µM. The compound further showed a solubility in [5] of 63.4 µM.
Take `CC(=O)Nc1ccc(Sc2nc(Nc3cc(C)n[nH]3)c3ccccc3n2)cc1`: in the series with COLO 205, the IC50 is 0.48 µM. The same compound had an MTD at 336 h in series [6] of 300 mg/kg. The compound also showed a half-life in series [7] of 1 h. Moreover, the Ki in series [3] stood at 1.26 µM; in [4], 1.03 µM; at Aurora kinase B [2] it was 0.027 µM; on Aurora kinase A, 0.004 µM. For the same compound, the Vd in series [8] was found to be 0.38 L/kg. This compound yielded a bioavailability in series [9] of 44%. The compound further had a clearance in series [10] of 7 mL/min. In addition, in the series filed under Rattus norvegicus, the “inhibition (INH)” value is 50%.
Consider `CCC(=O)Nc1ccc(Sc2nc(Nc3cc(C)n[nH]3)cc(N3CCCCC3)n2)cc1`, for which the results for the IC50 in the series on COLO 205, against Aurora kinase B [2] and on Aurora kinase A were 0.4 µM, 0.008 µM and 0.0016 µM, respectively. In [5], the concentration in solution (solubility) was 2.5 µg/mL.
On to `CCC(=O)Nc1ccc(Sc2nc(Nc3cc(C)n[nH]3)cc(N3CCN(C4CC4)CC3)n2)cc1`, for which the values for the IC50 in the series with COLO 205, against Aurora kinase B [2] and at Aurora kinase A were 0.075 µM, 0.0095 µM and < 0.001 µM, respectively. This compound had a solubility in series [5] of 12.8 µM.
With `COc1cc2c(Nc3ccc(C(=O)Nc4ccccc4)s3)ncnc2cc1OCCCN1CCOCC1`, the results for the IC50 against Aurora kinase B [2] and against Aurora kinase A were 0.057 µM and 0.011 µM, respectively.
Turning to `CCC(=O)Nc1ccc(Sc2nc(Nc3cc(C)n[nH]3)cc(N3CCN(CC)CC3)n2)cc1`, the results for the IC50 in the series on COLO 205, on Aurora kinase B [2] and against Aurora kinase A were 0.024 µM, 0.025 µM and < 0.001 µM, respectively. In addition, in series [5], the solubility came to 114 µM.
As to `CN1CCN(c2ccc(C(=O)Nc3n[nH]c4c3CN(C(=O)Cc3cccs3)C4)cc2)CC1`, the IC50 with HCT-116 is 0.57 µM.
For `COc1cc2c(Nc3ncc(CC(=O)Nc4ccccc4)s3)ncnc2cc1OCCCN1CCOCC1`, the IC50 on Aurora kinase B [2] and against Aurora kinase A was < 0.001 µM in each case.
In [11], `COc1cc(Nc2ncc3c(n2)-c2ccc(Cl)cc2C(c2c(F)cccc2OC)=NC3)ccc1C(=O)O` [ALISERTIB] registered an IC50 of 0.32 µM.
For the compound `O=C(Nc1c[nH]nc1-c1nc2cc(CN3CCOCC3)ccc2[nH]1)NC1CC1` [AT-9283], half-maximal inhibition against Aurora kinase B [2] (IC50) was put at 0.003 µM.
In series [7], `CCN(CCCOc1ccc2c(Nc3cc(CC(=O)Nc4cccc(F)c4)n[nH]3)ncnc2c1)CCOP(=O)(O)O` [BARASERTIB] showed a half-life of 5 h. Further, the clearance in [10] was determined as 0.84 L/h/kg.
As for `Cc1nc(N)sc1-c1ccnc(Nc2ccc(N3CCOCC3)cc2)n1` [CYC-116], at Aurora kinase C, the midpoint of inhibition, the IC50, lay at 0.065 µM.
In series [12], `CO[C@@H](C(=O)N1Cc2n[nH]c(NC(=O)c3ccc(N4CCN(C)CC4)cc3)c2C1)c1ccccc1` [DANUSERTIB] showed a clearance of 1.7 L/h/kg. In addition, the half-life in [13] is 3.7 h. The same compound displayed a Vd in series [14] of 2.7 L/kg. Also, the IC50 with A2780 was determined as 28 µM.
For the compound `O=C(O)c1ccc(Nc2ncc3c(n2)-c2ccc(Cl)cc2C(c2c(F)cccc2F)=NC3)cc1` [MLN-8054], the figures for the concentration at 24 h in series [15] and in [16] were > 2 µM and > 1 µM, respectively.
As for `O=C(Nc1cccc(Cl)c1)Nc1ncc(CCNc2ncnc3ccsc23)s1` [SNS-314 MESYLATE], in the series on HCT-116, the EC50 worked out at 0.006 µM.
Compound `Cc1cc(Nc2cc(N3CCN(C)CC3)nc(Sc3ccc(NC(=O)C4CC4)cc3)n2)[nH]n1` [TOZASERTIB] registered an Activity in the series with Homo sapiens of 75%.

The term IC50 denotes the concentration needed to halve the response being measured. In general, Ki refers to a dissociation constant, usually derived from enzyme kinetics or from competition with a known ligand. Read a high Ki as a looser hold on the target. As usually defined, the EC50 is the concentration needed to bring the measured effect to its halfway point. In general, solubility refers to the dissolved amount per volume that the medium holds. The term MTD denotes the highest dose tested that stayed within the study's limit of toxicity. For orientation: bioavailability means dose-corrected exposure relative to a reference, in per cent. The low end stands for poor availability, the high end for good availability. As a reminder, the clearance is the rate of elimination divided by the concentration. Lower therefore signals inefficient removal.
